Experimental data reported in paper PMC6572135, “N-Methyl-D-glucamine–Calix[4]resorcinarene Conjugates: Self-Assembly and Biological Properties” (Molecules, 2019).

Assays:
[1] = Tensiometry (surface tension, Du-Noüy ring), critical aggregation concentration; format: physicochemical; conditions: 25 °C
Description: In the next step of the study of GCR self-assembly the tensiometry method was used. Surface tension decreases with increasing GCR-1 concentration, but above the CAC (15 mM) the slope angle of the dependence changes (Figure 2). […] Concentration point of 15 mM, at which occurs inflection of surface tension dependence, corresponds to CAC that is in good agreement with conductometric value. The tensiometric CAC value of GCR-2 (3.3 mM) is slightly different from the conductometric value (7.9 mM, Table 1). The tensiometry method is well known to fix the changes of the mutual disposition of the molecules at the water–air interface, whereas conductometry measures the number and mobility of ions in the bulk solution. The CAC values obtained for GCR-2 are lower compared to those for GCR-1. The improved ability to aggregation of GCR-2 in comparison with GCR-1 may be due higher hydrophobicity of GCR-2. The relations between the surface tension and the concentration of macrocycle solution were illustrated in Figure 8. […] The first inflection point was determined after a concentration of 10 mM, which can be correlated with the CAC value in the aqueous environment. […] The turning point of the tensiometric curve for GCR-2 can be determined as 3.3 mM that is same as in water. […]

[2] = Transmission electron microscopy of aggregates; format: physicochemical; conditions: aqueous solution mixture of GCR-2 with two-fold excess of MG
Description: In a mixed 1 mM GCR-2–2 mM MG system particles with a hydrodynamic diameter of 2 nm were formed, which correlates well with the size of single macrocycle molecules. In a 15 mM GCR-2–30 mM MG mixed system particles with 3.8 nm diameter were formed. Such a size approximately corresponds to double the length of a GCR-2 molecule. This indicates of formation of spherical micelles by virtue of lateral packaging of aromatic walls by head-to-head contact due to π–stacking and hydrogen bonds between neighboring GCR-2 molecules as depicted in Figure 6b. Such an aggregation mode is similar to the self-assembly behavior described for other calixarenes. The zeta-potential of obtained particles is −17.4 mV which is attributable primarily to hydroxylic groups. The formation of little spherical particles was further affirmed by TEM images (Figure 5b). In comparison with the nanostructure of GCR-1 aggregates, smaller nanostructures with a diameter of ca. 5 ± 2 nm were formed in the aqueous solution mixture of GCR-2, which was in good accordance with the DLS measurements.
TEM images were recorded on a HT7700 TEM instrument (Hitachi, Tokyo, Japan) operated at 110 kV accelerating voltage. The samples with 20 mM solutions were ultrasonicated in water for 10 min and then dispersed on 300 mesh carbon-coated copper grid.

[3] = Stability of water solutions; format: physicochemical; conditions: water without MG
[4] = Hydrophobic dye (Sudan I) solubilization; format: physicochemical; conditions: water solution; GCR-2 with two-fold excess of MG; absorption band at 500 nm region
Description: The method of solubilization of the hydrophobic dye Sudan I was used for determination of formed aggregates’ morphology. The appearance of an absorption band characteristic of a lipophilic substance in an aqueous solution of a specific component indicates the formation of a hydrophobic core of the component aggregates, like in surfactant micelles, which solubilizes the hydrophobic substrate.
Dependence of GCR-2 at 500 nm on its concentration also loses linearity at higher 7.2 mM (Figure 3b). This is because the dissolved molecules of GCR-2 aggregate that confirms by conductometry and tensiometry. The obtained values of the correlation coefficients r^2 calculated for both calixarenes in a wide concentration range depict that GCR-2 has a greater ability to aggregate than GCR-1. […] Probably, the short methyl groups fail to form a nonpolar core capable of incorporating hydrophobic guests. […]
Hydrophobic dye solubilization was carried out by adding an excess of Sudan I to solutions. […] They were filtered, and Sudan I absorbance was measured at 486 nm using a Specord 250 Plus spectrophotometer (Analytic Jena, Jena, Germany) using a 1 mm optical path length quartz cell. Dye absorbance was obtained by subtraction of the contribution of macrocycle to the summary spectrum. Each absorbance spectrum was obtained three times, and the absorbance intensities were within 2–3%.

C.albicans 855–653 = experiment: Fungistatic activity (MIC), dilution method; format: cell-based; conditions: Candida albicans; C.albicans 855–653, fungistatic activity; read-out: Minimal Inhibiting Concentration (MIC)
Description: In vitro bacteriostatic and fungistatic activities of the macrocycles were evaluated against pathogenic representatives of Gram-positive bacteria (Staphylococcus aureus 209p, Bacillus cereus 8035), Gram-negative bacteria (Pseudomonas aeruginosa 9027, Escherichia coli F-50), and yeast (Trichophyton mentagrophytes var. gypseum 1773, Aspergillus niger BKMF-1119, Candida albicans 885–653). Minimal inhibitory concentrations (MICs) were estimated by conventional dilution methods for bacteria and fungi. The antibacterial and antifungal assays were performed in Hottinger broth (HiMe-dia Laboratories Pvt. Ltd. Mumbai, India) and Sabouraud dextrose broth (HiMedia Laboratories Pvt. Ltd.) (bacteria 3 × 10^5 cfu/mL and yeast 2 × 10^4 cfu/mL). The bactericidal and fungicidal activities were determined as described earlier. The tests were repeated three times.

Compound: CC1c2cc(c(O)c(CN(C)C[C@@H](O)[C@H](O)[C@@H](O)[C@@H](O)CO)c2O)C(C)c2cc(c(O)c(CN(C)C[C@@H](O)[C@H](O)[C@@H](O)[C@@H](O)CO)c2O)C(C)c2cc(c(O)c(CN(C)C[C@@H](O)[C@H](O)[C@@H](O)[C@@H](O)CO)c2O)C(C)c2cc1c(O)c(CN(C)C[C@@H](O)[C@H](O)[C@@H](O)[C@@H](O)CO)c2O (stereo partly drawn) [GCR-2, N-methyl-D-glucaminemethyl methylcalix[4]resorcinarene]
- First inflection / turning point of the tensiometric curve ([1]; 50% DMSO–50% water): 3.3 mM
- CAC, tensiometry ([1]; water solution, GCR-2 in the presence of two-fold excess of MG): 3.3 mM
- Diameter of nanostructures by TEM [2]: ca. 5 ± 2 nm
- Stability of water solutions [3]: unstable and eventually precipitate
- Solubilization of hydrophobic dye Sudan I [4]: do not solubilize the hydrophobic Sudan I
- MIC (C.albicans 855–653): > 500 µM
